Legend:
Microsomal stability = assay type: in vitro ADME; conditions: 1 hour incubation with rat microsomes
Procedure: Five hit compounds, representing both the ARTIS and ARTIK categories (c6, c11, c17, c52 and c85), were selected for in vivo tests based on all of the previous assays. Compound c5 was rejected due to very low microsomal stability (<5% after 1 hour incubation with rat microsomes). The toxicity of the compounds was evaluated in a dose escalation assay in which male NIH Swiss mice (n=4) received three sequential intraperitoneal (i.p.) injections of each compound delivered in 3 day intervals. The first dose was 20-fold higher than the in vitro IC50 (20×IC50) for the compound in CWR22R cells recalculated based on mouse weight (see Example 1) and the second and third doses were 50×IC50 and 100×IC50, respectively. On the day after the last injection, half of the mice in each group were sacrificed for gross pathology examination and collection of blood for serum biochemistry assays, which include total protein, glucose, bilirubin, and creatinine levels, activity of liver enzymes, and ion concentrations. The remaining mice were sacrificed and evaluated similarly 7 days after the last compound injection. […] A minor decrease in serum glucose concentration (70-80% of control) was observed on the day after the last compound injection in almost all mice, but glucose levels were normal a week later (data not shown). […]

[1] = system: AR protein in CWR22R cells; experiment: Western blot of AR protein levels; assay type: cell-based, human; conditions: 10 mM of hits for 36 hrs
Procedure: FIGS. 3A-3D depict data showing a that reduction of AR protein levels is associated with toxicity of the selected AR inhibitor hits to PCa cells. […] is a photographic representation of Western blotting of lysates from CWR22R cells treated with […] of the indicated hits for 36 hrs. […] GAPDH antibody was used to control for protein loading. FIG. 3B provides a graphical representation of data showing that, unlike parental CWR22R cells, a clone selected in the presence of c52 (c52R) is resistant to the effects of c52. AR protein expression in the c52R clone of CWR22R is not reduced by c52 treatment. Western blotting of parental and c52-resistant CWR22R cells with or without c52 treatment (10 μM for 36 hrs). FIG. 3C provides a graphical representation of data from analyzing cell viability by methylene blue staining 4 days after compound addition. Error bars—standard deviation between triplicates within experiment. FIG. 3D provides a graphical representation of data showing effects of the selected compounds on cell cycle distribution of CWR22R cells measured by propidium iodide staining of cellular DNA content by fluorescent activated cell sorting. Assay was done twice. Error bars—deviation between two measurements.
Western blot analysis. […] Total protein concentration was determined using Dc Protein Assay (BioRad, Hercules, Calif.). […]

C4-2 tumors = experiment: C4-2 xenograft model in nude mice; assay type: in vivo, mouse; conditions: 6 daily i.p. injections, 100xIC50 dose
Excerpt: FIGS. 6A and 6B provide data showing anti-tumor activity of the selected hits in mouse models of androgen-independent PCa. FIG. 6A provides a graphical representation of data obtained from i.p. injection of the listed compounds or DMSO vehicle into nude mice carrying subcutaneous (s.c.) C4-2 tumors. Six daily injections were given starting when tumors were around 100 mm3 in size. There were 4-5 mice per group with two tumors per mouse. Asterisks (*) and number signs (#) are placed under the means of measurement in the c6 and c11 groups respectively which are statistically different from the control group by ANOVA test (>99%) B. C52 (9 mg/kg or 18 mg/kg) or DMSO vehicle was injected into the tail vein of nude mice carrying s.c. CWR22R tumors. Five daily injections were given starting when tumors were around 40 mm3 in size. There were 10 mice per group with one tumor per mouse. Asterisks (*) are placed under the means of measurement which are statistically different from the control group by ANOVA test (>99%). Error bars in both FIGS. 6A and B—standard deviation between the size of tumors within a given treatment group.
Testing of the anti-tumor effect of compounds in mice was done according to an IACUC-approved protocol in 8 week old male athymic nude mice from Harlan (Indianapolis, Ind.). For the C4-2 xenograft model, 10^6 C4-2 cells were injected subcutaneously (s.c.) in 2 sites of each mouse in 50% matrigel (BD Biosciences, Bradford, Mass.) in PBS. Upon development of visible tumors, they were measured using digital caliper. Tumor volume was calculated according to the formula: […]. Mice were injected with compounds i.p. daily for 6 days starting on the day when at least one tumor per mouse reached 100 mm^3 in size. Five mice per group were used. For the CWR22R xenograft model, CWR22R cells were inoculated (10^5 cells per inoculum) in 50% matrigel, one site per mouse. Treatment was started when the tumor grew to a size of at least 25 mm^3. Compounds were diluted in captisol (CyDex, Lenexa, Kans.) and delivered intravenously (to reduce “first pass” liver effect) once a day for 5 days. Ten mice per group were used. Mice were monitored daily and tumors were measured every other day. Mice were euthanized according to institutional regulations when the size of tumor reached 1000 mm^3. Comparison of the tumor growth in control and treated mice was done using ANOVA test.
We evaluated the potential anti-tumor effect of the hits using C4-2 and CWR22R xenograft models of androgen-independent PCa in nude mice. Groups of C4-2 tumor-bearing mice (4-5 mice per group, each with two tumors) were given 6 daily i.p. injections of compound (100×IC50 dose) or DMSO vehicle.

CCCn1c2ccccc2c2cc(C(C)=O)ccc21 [c52]
microsomal stability, compound left (Microsomal stability): 17%
AR protein level in CWR22R cells [1]: complete disappearance of AR protein
C4-2 tumor growth (C4-2 tumors): did not
C4-2 tumor growth (C4-2 tumors; listed as C52): did not show in vivo efficacy

Source: patent US8835447B2, “Method for treating androgen receptor positive cancers” (priority 2009, dated 2014)
